Measurements published in paper PMC11786723, “Endoplasmic reticulum membrane remodeling by targeting reticulon-4 induces pyroptosis to facilitate antitumor immune” (Protein & Cell, 2024).

Tests used:
[1] = target: T1, reticulon-4 (RTN4/Nogo) (Homo sapiens, UniProt Q9NQC3); experiment: microscale thermophoresis (MST); supported by competitive pull-down; type: binding; parameters: RTN4B isoform focused on; MST construct printed only as RTN4
T1 sequence (Q9NQC3 1-373 isoform Q9NQC3-2): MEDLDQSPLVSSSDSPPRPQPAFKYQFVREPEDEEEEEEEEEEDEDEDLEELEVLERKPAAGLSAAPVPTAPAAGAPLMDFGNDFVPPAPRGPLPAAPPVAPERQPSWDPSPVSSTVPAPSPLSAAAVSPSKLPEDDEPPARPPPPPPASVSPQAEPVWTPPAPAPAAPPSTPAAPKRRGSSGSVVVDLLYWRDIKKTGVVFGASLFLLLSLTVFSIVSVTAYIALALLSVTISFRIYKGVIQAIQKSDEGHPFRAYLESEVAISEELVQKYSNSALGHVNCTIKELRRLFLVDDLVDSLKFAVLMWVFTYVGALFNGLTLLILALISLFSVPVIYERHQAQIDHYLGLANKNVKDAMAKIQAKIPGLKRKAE

[2] = target: T1, reticulon-4 (RTN4/Nogo); experiment: microscale thermophoresis (MST); HuProt human proteome microarray and competitive pull-down; type: binding; parameters: RTN4B isoform predominantly captured in pull-down; MST construct printed only as RTN4

| Kd [1] [nM] | Compound | Kd [2] [nM] |
| --- | --- | --- |
| 12.1 ± 1.28 | COc1c(O)cc2oc3cc(O)c(CC=C(C)C)c(O)c3c(=O)c2c1CC=C(C)C [α-MG, α-mangostin] |  |
|  | biotin-α-MG | 39 ± 1.09 |
